Results on twelve compounds are retold here after US9643951B2, “Compound having somatostatin receptor agonistic activity and pharmaceutical use thereof” (ONO PHARMACEUTICAL CO., LTD., priority 2013, dated 2017).

The structures appear in SMILES notation.

Broadly, the EC50 is the concentration giving half of the maximal effect. Low readings indicate a more potent agent, high ones a less potent agent.

Data set [1] addresses T1, human SSTR2 (Homo sapiens, UniProt P30874).
T1 construct: Myc; expressed in transfected cells
As to the kind of experiment: Evaluation of SSTR2 agonistic activity using cells expressing human SSTR2 (suppression of forskolin-stimulated cAMP production, SSTR2-CHO-K1). In kind it is cell-based. How it is done: Evaluation of SSTR2 Agonistic Activity Using Cells Expressing Human SSTR2
(1) Isolation of Human SSTR2 Gene
Human brain cDNA was purchased from Ambion (catalogue No.: 7962; Lot No.: 040200121). PCR primers, hSSTR2_F1_XhoI: 5′-[…]-3′ (SEQ ID NO: 1) and hSSTR2_R1_EcoRI: 5′-[…]-3′ (SEQ ID NO: 2) were designed on the basis of the sequence GenBank NM_001050.
PCR reaction (95° C. for 2 min.→[98° C. for 10 sec., 60° C. for 30 sec. and 68° C. for 90 sec.]×30 cycles) was carried out using the human brain cDNA as a template and using KOD-plus-(TOYOBO Co., Ltd.). The amplified PCR product was subjected to 1% agarose gel electrophoresis, purified using QIAquick Gel Extraction Kit (QIAGEN) and digested with restriction enzymes XhoI and EcoRI. The digested fragments were ligated to an expression vector (pIRESneo-Myc) using the DNA Ligation Kit Ver. 2 (Takara) and used for transformation of E. coli DH5a. The plasmid pIRESneo-Myc/hSSTR2 was prepared and the DNA sequence thereof was confirmed.
(2) Culture of CHO-K1 Cells
CHO-K1 (−) was cultured in Ham's F-12 medium (containing foetal bovine serum (10%), penicillin (100 U/mL) and streptomycin (0.1 mg/mL)). The transduced cells were cultured in the same medium supplemented with Geneticin (1 mg/mL).
(3) Transduction of CHO-K1 Cells
CHO-K1(−) cells were transduced with the plasmid pIRESneo-Myc/hSSTR2 using Lipofectamine 2000 (Invitrogen). After 48 hours, selection was carried out by replacing the medium with the one containing 1 mg/mL of Geneticin to establish a stable overexpressing cell line (SSTR2-CHO-K1).
(4) Evaluation of SSTR2 Agonistic Activity
The human SSTR2 agonistic activity of a test compound was evaluated according to the following procedures by using a suppression activity of intracellular cyclic AMP (cAMP) production by forskolin stimulation as an index. SSTR2-CHO-K1 cells suspended in Ham's F-12 medium (containing foetal bovine serum (10%), penicillin (100 U/mL) and streptomycin (0.1 mg/mL)) supplemented with 0.25 mg/mL of Geneticin were inoculated into a 96-well plate at a density of 4.0×10^4 cells/0.1 mL per well. On the next day, the medium was removed and washed twice with 0.1 mL of wash buffer [0.1% bovine serum albumin (BSA), 20 mmol/L 4-(2-hydroxyethyl)-1-piperazineethane sulphonic acid (HEPES)-containing Hank's balanced salt solution (HBSS)]. An assay buffer [[…] 3-isobutyl-1-methylxanthine (IBMX), 0.1% BSA, 20 mmol/L HEPES-containing HBSS] was added to the wells at 0.06 mL per well and the plate was incubated for 15 minutes under the conditions of 5% carbon dioxide and 37° C. Thereafter, an assay buffer containing a test compound at a concentration twice as high as the final concentration and 0.02 mmol/L of forskolin was added to wells at 0.06 mL per well and the plate was incubated for 30 minutes under the conditions of 5% carbon dioxide and 37° C. Thereafter, the Assay/Lysis buffer included in the cAMP-Screen® kit (available from Applied Biosystems) was added to wells at 0.12 mL per well and the plate was incubated for 30 minutes under the conditions of 5% carbon dioxide and 37° C. The concentration of cAMP in samples were measured by ELISA according to the instruction of the kit.

Data set [2] in a line: Evaluation of cytotoxicity using cultured human hepatocytes (intracellular ATP). Type of data set: cell-based. Particulars: read-out: IC50 of cytotoxicity (concentration at which 50% of the luminescence is suppressed). The protocol:
Evaluation of Cytotoxicity Using Cultured Human Hepatocytes
Frozen adhesive human hepatocytes were thawed, suspended in a hepatocellular medium (HCM) purchased from Lonza and inoculated to a 96-well plate coated with collagen. The culture medium of the hepatocytes cultured overnight in an incubator (5% carbon dioxide, 95% air, 37° C.) was exchanged to the medium containing a test compound at a concentration of 0, 12.5, 25, 50, 100, 200 or 400 (×10^−6 mol/L) and the cells were further cultured for 24 hours. Cytotoxicity was evaluated by measuring the intracellular ATP concentration. Specifically, using the Promega Celltiter-Glo luminescent assay kit available from Promega, cells were lysed in the assay buffer included in the kit and the concentration of ATP released from the cells was measured according to the luminescence resulting from luciferin-luciferase enzyme activity. The luminescence was measured on the SpectraMax plate reader from Molecular Devices. The extent of cytotoxicity of a test compound is represented by the concentration (IC50) of the compound at which 50% of the luminescence is suppressed.

Data set [3] is described as follows: Human hepatic microsome stability test. In kind it is in vitro ADME. The following applies: human hepatic microsomes 1 mg/mL; 60 minutes; test compound 0.001 mmol/L; 37° C. How it is done:
Human Hepatic Microsome Stability Test
To a reaction vessel heated to 37° C. in a water bath, 0.392 mL of phosphate buffer (0.1 mol/L, pH 7.4) containing human hepatic microsomes (1 mg/mL, Xenotech) and NADPH-Co-factor (NADP+1.3 mmol/L, BD-Bioscience) was added and pre-incubated for 5 minutes. A 50% acetonitrile solution (0.008 mL) containing 0.05 mmol/L of a test compound was added thereto to initiate the enzyme reaction (final concentration of the test compound: 0.001 mmol/L). Immediately after initiation of the reaction and at 60 minutes thereafter, 0.050 mL of the reaction solution was respectively collected, which was immediately added to an acetonitrile solution (0.2 mL) containing an internal standard (45 nmol/L, 1-[3-(3,5-dimethylphenyl)-4-quinolinyl]-4-piperidineamine) to terminate the enzyme reaction.
The residual rate (%), which is indicative of stability of the test compound, was calculated using the ratio of peak areas between the test compound and the internal substance determined by LC/MS/MS (TSQ Quantum Discovery MAX, Thermo) analysis of the sample thus prepared by the above procedures followed by filtration, and the equation: {[residual rate (%)=[peak area of a test compound in a sample at 60 minutes after initiation of the reaction/peak area of the internal standard]/[peak area of the test compound in the sample immediately after initiation of the reaction/peak area of the internal standard]×100}.

Data set [4] deals with growth hormone (GH) secretion. The data set can be described thus: Evaluation of suppression of growth hormone (GH) secretion using rats (GHRH-induced). Type of data set: in vivo. The following applies: Rattus norvegicus, Procedure (B): oral administration 8 hours beforehand, 1 mg/kg, read-out: percentage of suppression of GH secretion. The protocol:
Evaluation of Suppression of Growth Hormone (GH) Secretion Using Rats
[Procedure (A): Administration of a Test Compound 30 Minutes Beforehand]
A medium (distilled water (Otsuka distilled water, Otsuka Pharmaceutical Factory, […]) IGS rats (Charles River Laboratories Japan, Inc.)) and after 27 minutes, the animals were administered with 50 mg/kg of pentobarbital sodium (Somnopentyl, Kyoritsu Seiyaku Corporation) via the tail vein for anaesthesia. Three minutes after administration of pentobarbital sodium, the rats were administered with 0.01 mg/kg of growth hormone-releasing hormone (GHRH, Bachem) via the tail vein to induce GH secretion. In order to measure the blood GH concentration, 0.2 mL of blood was collected through the jugular vein at 5 minutes after administration of GHRH. The collected blood was centrifuged at 4° C., 13,000×g for 5 minutes to obtain plasma. The blood GH concentration was measured by using Rat/Mouse Growth Hormone ELISA (Millipore) following the instruction of the kit. The percentage (%) of suppression of GH secretion was determined by using the obtained blood GH concentration and the equation {[suppression (%) of GH secretion]=([blood GH concentration of the group administered with the medium]−[blood GH concentration of the group administered with a test compound])/[blood GH concentration of the group administered with the medium]×100}. In the equation, the group administered with the medium represents the group of animals administered with the medium and the group administered with a test compound represents the group of animals administered with a test compound dissolved in the medium.
[Procedure (B): Administration of a Test Compound 8 Hours Beforehand]
A medium (distilled water (Otsuka distilled water, Otsuka Pharmaceutical Factory, […]) IGS rats (Charles River Laboratories Japan, Inc.)) and after 7 hours and 57 minutes, the animals were administered with 50 mg/kg of pentobarbital sodium (Somnopentyl, Kyoritsu Seiyaku Corporation) via the tail vein for anaesthesia. Three minutes after administration of pentobarbital sodium, the rats were administered with 0.01 mg/kg of growth hormone-releasing hormone (GHRH, Bachem) via the tail vein to induce GH secretion. The rest of the procedure is the same as in [Procedure (A)] described above.

T1 sequence (P30874 whole entry): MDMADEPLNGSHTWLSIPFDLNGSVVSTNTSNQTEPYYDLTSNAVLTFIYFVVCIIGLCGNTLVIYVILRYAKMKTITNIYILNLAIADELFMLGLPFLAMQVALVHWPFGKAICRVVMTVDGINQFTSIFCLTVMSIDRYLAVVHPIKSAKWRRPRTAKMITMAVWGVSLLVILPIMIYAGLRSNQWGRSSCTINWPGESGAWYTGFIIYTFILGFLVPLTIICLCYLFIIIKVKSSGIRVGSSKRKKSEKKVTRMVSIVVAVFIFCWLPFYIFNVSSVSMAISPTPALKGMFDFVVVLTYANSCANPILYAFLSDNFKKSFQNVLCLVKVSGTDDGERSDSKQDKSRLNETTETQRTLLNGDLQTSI

Turning to `NC1CCN(c2c(/C=C/c3cccc(Cl)c3)cncc2-c2cc(F)cc(Cl)c2)CC1` [Example 3(1), 1-{3-(3-chloro-5-fluorophenyl)-5-[(E)-2-(3-chlorophenyl)vinyl]-4-pyridinyl}-4-piperidineamine], in data set [1], the EC50 was determined as 0.11 nM. In addition, the IC50 at 24 h in data set [2] was found to be 19000 nM. In data set [3], this compound gave a residual rate of 50.3%. Moreover, in data set [4], the inhibition in vivo at 1 mg/kg came out at 86%.

With `CCNC1CCN(c2c(-c3ccc(C(F)(F)F)cc3)cncc2-c2cc(Cl)cc(Cl)c2)CC1` [Example 5(1), 1-{3-(3,5-dichlorophenyl)-5-[4-(trifluoromethyl)phenyl]-4-pyridinyl}-N-ethyl-4-piperidineamine], in data set [1], the response was half-maximal at 0.045 nM (EC50). In data set [2], the IC50 at 24 h stood at 18000 nM. The compound further displayed a residual rate in data set [3] of 57.6%. In data set [4], the inhibition in vivo at 1 mg/kg worked out at 90%.

`N#CC1(c2ccc(-c3cncc(-c4cc(Cl)cc(Cl)c4)c3N3CC[C@@H]4NCCO[C@H]4C3)cc2)CC1` [Example 2(5), 1-(4-{5-(3,5-dichlorophenyl)-4-[(4aS,8aS)-octahydro-6H-pyrido[3,4-b][1,4]oxazin-6-yl]-3-pyridinyl}phenyl)cyclopropanecarbonitrile]: the midpoint of the response in data set [1], the EC50, lay at 0.05 nM. Further, the IC50 at 24 h in data set [2] is 19000 nM. The same compound returned a residual rate in data set [3] of 53.1%. In data set [4], the inhibition in vivo at 1 mg/kg came to 85%.

On to `Cc1cc(C)cc(-c2cnc3cc(Cl)c(-c4cnn(C)c4)cc3c2OCC[C@H]2CCCCN2)c1` [formula (M), reference compound], for which, in data set [2], the IC50 at 24 h was found to be 13000 nM.

Compound `Cc1cc(C)cc(-c2cncc(-c3nc4c(C)cc(C)cc4[nH]3)c2N2CCC(N)CC2)c1` [formula (P), reference compound] had a residual rate in data set [3] of 1.2%.

`CCNC1CCN(c2c(-c3ccc(C4(C#N)CC4)cc3)cncc2-c2cc(Cl)cc(Cl)c2)CC1` [Example 5(2), 1-(4-{5-(3,5-dichlorophenyl)-4-[4-(ethylamino)-1-piperidinyl]-3-pyridinyl}phenyl)cyclopropanecarbonitrile] displayed an EC50 in data set [1] of 0.036 nM. The IC50 at 24 h in data set [2] was 22000 nM. In data set [3], this compound yielded a residual rate of 80.3%. Moreover, the inhibition in vivo at 1 mg/kg in data set [4] is 90%.

Compound `CCNC1CCN(c2c(-c3ccc(C(C)(C)C#N)cc3)cncc2-c2cc(Cl)cc(Cl)c2)CC1` [Example 5(4), 2-(4-{5-(3,5-dichlorophenyl)-4-[4-(ethylamino)-1-piperidinyl]-3-pyridinyl}phenyl)-2-methylpropanenitrile] came in with a 50% effective concentration (EC50) in data set [1] of 0.021 nM. Moreover, the IC50 at 24 h in data set [2] came to 17000 nM. Moreover, in data set [3], the residual rate worked out at 74.9%. Further, the inhibition in vivo at 1 mg/kg in data set [4] was 89%.

With `CCNC1CCN(c2c(/C=C(\C)c3cccc(F)c3)cncc2-c2cc(Cl)cc(Cl)c2)CC1` [Example 5(5), 1-{3-(3,5-dichlorophenyl)-5-[(1E)-2-(3-fluorophenyl)-1-propen-1-yl]-4-pyridinyl}-N-ethyl-4-piperidineamine], it took 0.071 nM to reach a half-maximal effect in data set [1] (EC50). Moreover, in data set [2], the IC50 at 24 h came out at 17000 nM. The same compound showed a residual rate in data set [3] of 88.6%. The inhibition in vivo at 1 mg/kg in data set [4] is 85%.

As to `CO[C@@H]1CN(c2c(-c3ccc(C(F)(F)F)cc3)cncc2-c2cc(Cl)cc(Cl)c2)CC[C@H]1N` (racemic) [Example 2(6), rac-(3R,4R)-1-{3-(3,5-dichlorophenyl)-5-[4-(trifluoromethyl)phenyl]-4-pyridinyl}-3-methoxy-4-piperidineamine], in data set [1], a half-maximal response (EC50) required 0.47 nM.

For `N#Cc1cccc(/C=C/c2cncc(-c3cc(Cl)cc(Cl)c3)c2N2CCC(N)CC2)c1` [Example 4(1), 3-{(E)-2-[4-(4-amino-1-piperidinyl)-5-(3,5-dichlorophenyl)-3-pyridinyl]vinyl}benzonitrile], in data set [1], the EC50 was found to be 0.038 nM. The residual rate in data set [3] stood at 49.9%. Also, in data set [4], the inhibition in vivo at 1 mg/kg is 84%.

`CO[C@@H]1CN(c2c(-c3ccc(C(F)(F)F)cc3)cncc2-c2cc(Cl)cc(Cl)c2)CC[C@@H]1N` (racemic) [Example 2(7), rac-(3R,4S)-1-{3-(3,5-dichlorophenyl)-5-[4-(trifluoromethyl)phenyl]-4-pyridinyl}-3-methoxy-4-piperidineamine]: it took 0.17 nM to reach a half-maximal effect in data set [1] (EC50).

`N[C@@H]1CCN(c2c(-c3ccc(C(F)(F)F)cc3)cncc2-c2cc(Cl)cc(Cl)c2)C[C@@H]1O` [Example 6, (3S,4R)-4-amino-1-{3-(3,5-dichlorophenyl)-5-[4-(trifluoromethyl)phenyl]-4-pyridinyl}-3-piperidinol] gave a concentration for a half-maximal effect (EC50) in data set [1] of 0.027 nM. Further, the residual rate in data set [3] is 89.9%. Besides, in data set [4], the inhibition in vivo at 1 mg/kg amounted to 89%.
